Results on 37 molecules are retold here after patent US20170020900A1, “METHODS FOR SCREENING ANTIMICROBIAL AND ANTIVIRAL COMPOUNDS AND USES THEREOF” (The General Hospital Corporation, priority 2006, published 2017).

Values after ≈ are worked out from the molar mass of the structure shown. Residues, ends and D or L forms follow the SMILES beside them. *: point of attachment. CH2Cl = ClC* Some results are limits rather than exact numbers.

In one assay the test system is C. albicans strain MLR62. As to the kind of experiment: C. elegans-Candida killing assay, compound library screen in 96-well plates. The assay is classed as in vivo, Candida albicans. As to conditions: for Killing: glp-4, sek-1 nematodes, day 6, compound 33.33 μg/ml, 13.33 μg/ml, or 6.67 mM depending on library. As for the experimental part: For testing the efficacy of chemical compounds, C. albicans strain MLR62 was inoculated into 2 ml of YPD and grown at 30° C. for 24 hours; 10 μl of the culture was spread on 35-mm tissue-culture plates (Falcon) containing brain heart infusion (BHI) agar (Difco) with kanamycin (45 μg/ml), ampicillin (100 μg/ml), and streptomycin (100 μg/ml). The plates were incubated at 30° C. for 24 hours. C. elegans animals at the L4 developmental stage (grown as detailed above under C. elegans liquid medium killing assays) were transferred from a lawn of E. coli HB101 onto C. albicans lawns on BHI medium, incubated at 25° C. for 30 minutes, and then pipetted in 50 μl into 96-well plate wells that contained 100 μl liquid media (79% of M9 buffer, 20% BHI media, 2 μM cholesterol and 90 μg/ml kanamycin). C. elegans glp-4; sek-1 nematodes were pipetted into 96-well plates that contained compounds from chemical libraries. Library 1361 was assembled by Biomol and contains well-characterized compounds that affect many different aspects of cellular pathways. The NINDS custom collection (plates 501-503) was put together by MicroSource Discovery Systems for the National Institute of Neurological Disorders and Stroke (NINDS), the Huntington's Disease Society of America (HDSA), the Amyotrophic Lateral Sclerosis (ALS) Association, and the Hereditary Disease Foundation (HDF). It mostly contains FDA approved drugs. The Prestwick library (plate 1569) contains compounds that are known to be safe and bioactive in humans. The majority of the compounds are marketed drugs.
On day 6, nematodes were evaluated for survival, filament formation and optical density. The plates were incubated at 25° C. and examined on day 6 for survival with a Nikon SMZ645 dissecting microscope. In addition, images were obtained using a CellWorx High Content Cell Analysis System (Applied Precision) at 4× magnification. Dead worms were counted but not removed. […] Each compound was also scored by the number of dead worms in the well that developed hyphea. […] Compounds were categorized as having a minimal effect on filament formation if 25-75% of the dead worms developed hyphea.
Approximately 25 nematodes were used to analyze each chemical compound tested. Two controls were used in all plates. […] In this pilot screen, we considered a compound as a “hit” when survival in the compound well with was 50% and above of the median survival of the control wells. Depending on the compound library, the final concentration of the compounds was 33.33 μg/ml, 13.33 μg/ml, or […].

Assay [1] concerns E. faecalis strain MMH594. As to the kind of experiment: MIC, 2-fold broth microdilution in BHI media (NCCLS). The assay is classed as cell-based, Enterococcus faecalis. The conditions noted are these: Enterococcus faecalis, E30 value is at its aqueous solubility limit, read-out: MIC. As for the experimental part: Worm survival was scored manually after 6 days of incubation. […] MICs were determined against E. faecalis strain MMH594 using 2-fold dilution in BHI media according to the broth microdilution protocol of the NCCLS (CLSI) (National Committee for Clinical Laboratory Standards, Approved Standard M7-A5; Methods for Dilution Antimicrobial Susceptibility Tests for Bacteria that Grow Aerobically, Villanova, Pa.: NCCLS (2000)).

Assay [2] deals with E. faecalis. Briefly: Bacterial colonization of the nematode intestine (CFU per worm). The assay is classed as in vivo, Enterococcus faecalis. The conditions noted are these: 100% = 3.28 × 10^4 CFU/worm. As for the experimental part:
Infected worms were washed three times with M9 buffer containing 1 mM sodium azide. Approximately 10 worms were transferred to a 2 ml microcentrifuge tube and the volume was brought to 250 μl. Fifty μl of buffer was removed and plated to determine the number of external CFU.

Assay [3] has as its system E. faecalis. Briefly: Curing of a nematode E. faecalis infection on solid medium by antibiotic treatment. The format is in vivo, Enterococcus faecalis. As to conditions: worms transferred to E. faecium lawns. As for the experimental part: FIGS. 11A-11D show the curing of a nematode E. faecalis infection on solid medium by antibiotic treatment. FIG. 11A is a graph depicting the Kaplan-Meier survival curves of wild-type N2 C. elegans feeding continuously on lawns of E. faecalis (Efs) V583 (▴) or E. faecium (Efm) DO (▾). Nematodes feeding for 24 hours on E. faecalis and subsequently transferred to lawns of E. faecium (▪) die with an LT50 of 14.9 days. Error bars equal SEM. […] FIG. 11C is a graph showing the antibiotic concentrations required to promote rescue of E. faecalis infected N2 nematodes. […] Error bars are standard deviations. […] Error bars equal SEM.
N2 or glp-4(bn2ts); sek-1(km4) worms were synchronized by isolating eggs from gravid adults, hatching the eggs overnight in M9 buffer, and plating L1-stage worms onto lawns of E. coli on NGM agar media. Worms were grown to sterile, young adults by incubation at 25° C. for 48 to 52 hours, washed off the plates with M9 buffer, resuspended and washed in M9 buffer, deposited onto lawns of E. faecalis grown on BHI agar plates containing kanamycin at 80 μg/ml to inhibit E. coli growth, incubated for 8 to 12 hours at 25° C., and resuspended in M9 buffer. For assays using agar media, approximately 35 infected worms were washed and then deposited onto 35 mm plates containing the appropriate antibiotics. Plates were incubated at 25° C. and scored for worm survival at regular intervals. Worms were considered dead if they were unresponsive to touch with a platinum wire pick. For the initial assays using liquid media, approximately 80 infected worms were transferred to wells of a 6 well plate containing 2 ml media consisting of 10% BHI 80 μg/ml kanamycin, 90% M9 buffer, and the appropriate antibiotics. The plates were incubated without agitation at 25° C. and 80-85% relative humidity.

For the molecule `CCCCC(C)(O)C/C=C/[C@H]1[C@H](O)CC(=O)[C@@H]1CCCCCCC(=O)O` (mixture of isomers) [Misoprostol, free acid], in the assay with C. albicans strain MLR62, the Killing is given as 0.464.

`CCCCCCCCCCCCCCC[C@H](O)[C@@H](N)CO` (racemic) [DL-Dihydrosphingosine] yielded a Killing with C. albicans strain MLR62 of 0.485.

For the molecule `CCCCC/C=C\C/C=C\C/C=C\C=C\[C@H](CCCC(=O)O)OO` [5 (S) HPETE], the Killing in the assay on C. albicans strain MLR62 is 0.261.

Consider `CCCCCCCCCCC/C=C\C(C)(C)/C=C\CCCC(=O)O` [7,7-Dimethyleicosadienoic acid], for which the Killing with C. albicans strain MLR62 was determined as 0.304.

In the case of `CCCCC[C@@H](/C=C/C=C\C/C=C\C/C=C\CCCC(=O)O)OO` [15 (S) HPETE], the Killing in the assay with C. albicans strain MLR62 is recorded as 0.412.

In the assay with C. albicans strain MLR62, `N#CC(=Cc1ccc2[nH]ccc2c1)C(N)=C(C#N)C#N` [AG-370] displayed a Killing of 0.111.

As for `N#C/C(=C/c1ccc(O)c(O)c1)C(=O)NCc1ccccc1` [AG-490], in the assay on C. albicans strain MLR62, the Killing turned out to be 0.462.

The molecule `COc1cc2ncnc(Nc3cccc(Cl)c3)c2cc1OC` [AG-1478] came in with a Killing in the assay with C. albicans strain MLR62 of 0.3.

As for `C[C@H](N)C(=O)N[C@@H](C)C(=O)N[C@@H](Cc1ccccc1)C(=O)CCl` [ALA-ALA-PHE-CMK] (H-Ala-Ala-Phe-CH2Cl), in the assay with C. albicans strain MLR62, the Killing was found to be 0.448.

In the assay on C. albicans strain MLR62, `CC(=O)N[C@@H](CSC/C=C(\C)CC/C=C(\C)CCC=C(C)C)C(=O)O` [Acetyl (N) s farnesyl 1 cys] came in with a Killing of 0.4.

With `Cc1n[nH]c(=O)[nH]c1=O` [Azathymine, 6], the Killing in the assay on C. albicans strain MLR62 is on record as 0.480.

`CO/C1=C\C(C)=C\[C@@H](C)[C@@H](O)[C@@H](C)C/C(C)=C/C=C/[C@H](OC)[C@@H]([C@@H](C)[C@@H](O)[C@H](C)[C@@]2(O)C[C@@H](O)[C@H](C)[C@@H](C(C)C)O2)OC1=O` [Bafilomycin A1] gave a Killing in the assay on C. albicans strain MLR62 of 0.333.

Take `O=C(/C=C/c1ccc(O)c(O)c1)OCCc1ccccc1` [Caffeic acid phenethyl ester]: the “fluorescence within the nematode intestine (GFP-expressing C. albicans)” value in the assay with C. albicans strain MLR62 (FIG. 18A) was “no fluorescence within the intestine”.

Regarding `O=C(NC(NC(=S)Nc1ccc([N+](=O)[O-])cc1)C(Cl)(Cl)Cl)c1cccc([N+](=O)[O-])c1` (stereo not shown) [Compound E1], in assay [1], the MIC is 31.3 µg/mL (≈ 63.5 µM). In addition, the “Amt. Colonization vs untreated” value in the assay with E. faecalis [2] worked out at 1%.

As to `O=C(CCN1C(=O)/C(=C2/SC(=S)N(CCC(=O)Nc3ccccc3C(=O)O)C2=O)SC1=S)Nc1ccccc1C(=O)O` [Compound F1], the MIC in assay [1] is more than 125 µg/mL. For the same molecule, the “Amt. Colonization vs untreated” value in the assay with E. faecalis [2] is recorded as 3%.

Turning to `O=c1[nH]c2ccc(/N=C/c3cc(I)cc(I)c3O)cc2[nH]1` [Compound H1], in assay [1], the minimum inhibitory concentration (MIC) was 15.6 µg/mL (≈ 30.9 µM). Moreover, the “Amt. Colonization vs untreated” value with E. faecalis [2] came to 1%.

Regarding `O=C1c2ccccc2-c2ncnc3ccc(NC4CCCCC4)c1c23` [Compound J1], the MIC in assay [1] turned out to be 2 µg/mL (≈ 6.07 µM). The “Amt. Colonization vs untreated” value in the assay with E. faecalis [2] amounted to 11%.

Take `COc1ccc(/C=C/C2=CCN(Cc3ccccc3)CC2)cc1` [Compound K1]: the MIC in assay [1] was more than 125 µg/mL. For the same molecule, the “Amt. Colonization vs untreated” value with E. faecalis [2] is 61%.

Consider `c1ccc(-c2ccc(CN3CCN(c4ccccn4)CC3)cc2)cc1` [Compound L1], for which the MIC in assay [1] was more than 125 µg/mL. The “Amt. Colonization vs untreated” value with E. faecalis [2] is given as 101%.

As to `CC1(C)C(C=C(Cl)Cl)C1C(=O)NCCCOC(=O)Nc1ccc(Cl)cc1` (stereo not shown) [Compound M1], in assay [1], the MIC was more than 125 µg/mL. For the same molecule, in the assay on E. faecalis [2], the “Amt. Colonization vs untreated” value stood at 8%.

For `CC(Oc1cccc(Cl)c1)C(=O)N/N=C/c1cc([N+](=O)[O-])ccc1O` (stereo not shown) [Compound N1], the MIC in assay [1] amounted to 3.9 µg/mL (≈ 10.7 µM). In addition, the “Amt. Colonization vs untreated” value with E. faecalis [2] is 5%.

Regarding `O=[N+]([O-])c1cc(O)ccc1/C=N/Nc1nc(NCc2ccccc2)nc(N2CCOCC2)n1` [Compound O1], in assay [1], the MIC was 15.6 µg/mL (≈ 34.6 µM). The “Amt. Colonization vs untreated” value with E. faecalis [2] came out at 8%.

For `C=C1[C@@H](C)[C@H]2[C@H](Cc3ccccc3)NC(=O)[C@]23OC(=O)/C=C/[C@H](O)CCC[C@@H](C)C/C=C/[C@H]3[C@@H]1O` [Cytochalasin B], the Killing in the assay with C. albicans strain MLR62 is on record as 0.438.

With `CC/C=C\C/C=C\C/C=C\C/C=C\C/C=C\CCCC(=O)O` [Eicosapentaenoic acid (20:5 n-3)], the Killing with C. albicans strain MLR62 is 0.448.

In the case of `COC(=O)c1c(C)[nH]c(C)c1C(=O)c1ccccc1Cc1ccccc1` [FPL-64176], the Killing in the assay on C. albicans strain MLR62 amounted to 0.429.

For `CCCCC/C=C\C[C@@H](O)/C=C/C=C/C=C\[C@@H](O)CCCC(=O)O` [Leukotriene B4], in the assay with C. albicans strain MLR62, the Killing is 0.483.

In the assay with C. albicans strain MLR62, `CCCCC[C@H](O)/C=C/C=C\C=C\C=C\[C@@H](O)[C@@H](O)CCCC(=O)O` [Lipoxin A4] showed a Killing of 0.273.

`Clc1ccc2ncnc(NCc3ccc4c(c3)OCO4)c2c1` [MBCQ] returned a Killing in the assay on C. albicans strain MLR62 of 0.32.

On to `C[N+]1(CCCCC[N+]2(C)CCCC2)CCCC1.O=C([O-])C(O)C(O)C(=O)O.O=C([O-])C(O)C(O)C(=O)O` [Pentolinium bitartrate], for which the Killing in the assay on C. albicans strain MLR62 is 0.227.

For `CC(=O)[C@H]1CC[C@H]2[C@@H]3CC=C4C[C@@H](OS(=O)(=O)[O-])CC[C@]4(C)[C@H]3CC[C@]12C.[Na+]` [Pregnenolone sulfate, sodium salt], in the assay on C. albicans strain MLR62, the Killing is reported as 0.438.

Turning to `N#Cc1cc2c(OCC(O)CN3CCN(C(c4ccccc4)c4ccccc4)CC3)cccc2[nH]1` (stereo not shown) [SDZ-201106], the Killing with C. albicans strain MLR62 was found to be 0.432.

For the molecule `CN(C)[C@@H]1C(O)=C(C(N)=O)C(=O)[C@@]2(O)C(O)=C3C(=O)c4c(O)cccc4[C@@](C)(O)[C@H]3C[C@@H]12` [Tetracycline], the “survival of E. faecalis infected N2 C. elegans, p (Kaplan-Meier)” value in the assay on E. faecalis [3] (tetracycline 0.08 μg/ml) was 0.56; with E. faecalis [3] (tetracycline 0.4 μg/ml) it was less than 0.06; with E. faecalis [3] (tetracycline 2 μg/ml), less than 0.0014; in the assay on E. faecalis [3] (tetracycline 10 μg/ml) it was less than 0.0001.

In turn, Docosatrienoic acid (22:3 n-3) displayed a Killing with C. albicans strain MLR62 of 0.439.

In the assay with C. albicans strain MLR62, Eicosatrienoic acid (20:3 n-3) displayed a Killing of 0.333.

With Hydrocortisone hemisuccinate, the Killing in the assay on C. albicans strain MLR62 came out at 0.300.

Take Hydroxytacrine maleate: the Killing in the assay with C. albicans strain MLR62 stood at 0.467.

Molecule Ikarugamycin yielded a Killing with C. albicans strain MLR62 of 0.429.
